{"source": "paper PMC8635029", "about": "(Frontiers in Pharmacology, 2021)", "assay_in_all_cases": "In vitro SafetyScreen panel", "format_in_all_cases": "binding", "key": {"Muscarinic M1": {"target": "T1, Muscarinic M1 (Homo sapiens, UniProt P11229)", "T1 construct": "Eurofins Discovery (outsourced panel) PP223", "T1 sequence (P11229 whole entry)": "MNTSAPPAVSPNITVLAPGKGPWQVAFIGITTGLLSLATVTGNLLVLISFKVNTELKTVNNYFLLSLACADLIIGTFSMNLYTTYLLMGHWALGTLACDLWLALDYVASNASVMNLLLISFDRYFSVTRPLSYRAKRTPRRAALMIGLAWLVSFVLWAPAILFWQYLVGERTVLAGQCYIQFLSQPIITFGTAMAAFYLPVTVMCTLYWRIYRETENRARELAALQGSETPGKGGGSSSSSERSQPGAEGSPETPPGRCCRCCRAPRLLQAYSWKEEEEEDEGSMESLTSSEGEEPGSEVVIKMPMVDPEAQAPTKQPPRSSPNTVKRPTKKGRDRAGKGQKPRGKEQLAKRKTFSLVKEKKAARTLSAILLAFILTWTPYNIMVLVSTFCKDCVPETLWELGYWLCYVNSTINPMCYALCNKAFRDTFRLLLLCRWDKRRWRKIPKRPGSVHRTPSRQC", "protocol": "(§1) In vitro off-target pharmacological activities of HSK21542 were evaluated on 86 targets using a SafetyScreen panel (Item PP223, target selectivity panel) and the corresponding methods could be found at https://www.eurofinsdiscoveryservices.com/."}, "Neuropeptide YY1": {"target": "T2, Neuropeptide YY1 (Homo sapiens, UniProt P25929)", "T2 construct": "Eurofins Discovery (outsourced panel) PP223", "protocol": "as §1"}, "Opiate μ (OP3, MOP)": {"target": "T3, Opiate μ (OP3, MOP) (Homo sapiens, UniProt P35372)", "T3 construct": "Eurofins Discovery (outsourced panel) PP223", "T3 sequence (P35372 whole entry)": "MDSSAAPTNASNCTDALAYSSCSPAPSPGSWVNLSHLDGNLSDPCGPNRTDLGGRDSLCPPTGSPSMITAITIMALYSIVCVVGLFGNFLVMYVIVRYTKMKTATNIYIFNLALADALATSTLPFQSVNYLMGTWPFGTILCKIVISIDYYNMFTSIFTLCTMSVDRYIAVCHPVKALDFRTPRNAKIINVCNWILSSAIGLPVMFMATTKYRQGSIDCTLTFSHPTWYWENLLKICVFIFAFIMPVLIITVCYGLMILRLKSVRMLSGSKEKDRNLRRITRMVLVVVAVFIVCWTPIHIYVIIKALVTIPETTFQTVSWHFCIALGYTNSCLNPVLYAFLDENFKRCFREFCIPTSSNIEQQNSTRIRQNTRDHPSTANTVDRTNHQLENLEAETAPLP", "protocol": "as §1"}, "Glucocorticoid": {"target": "T4, Glucocorticoid (Homo sapiens, UniProt P04150)", "T4 construct": "Eurofins Discovery (contract panel) Item PP223", "protocol": "as §1"}, "Muscarinic M2": {"target": "T5, Muscarinic M2 (Homo sapiens, UniProt P08172)", "T5 construct": "Eurofins Discovery (outsourced panel) PP223", "T5 sequence (P08172 whole entry)": "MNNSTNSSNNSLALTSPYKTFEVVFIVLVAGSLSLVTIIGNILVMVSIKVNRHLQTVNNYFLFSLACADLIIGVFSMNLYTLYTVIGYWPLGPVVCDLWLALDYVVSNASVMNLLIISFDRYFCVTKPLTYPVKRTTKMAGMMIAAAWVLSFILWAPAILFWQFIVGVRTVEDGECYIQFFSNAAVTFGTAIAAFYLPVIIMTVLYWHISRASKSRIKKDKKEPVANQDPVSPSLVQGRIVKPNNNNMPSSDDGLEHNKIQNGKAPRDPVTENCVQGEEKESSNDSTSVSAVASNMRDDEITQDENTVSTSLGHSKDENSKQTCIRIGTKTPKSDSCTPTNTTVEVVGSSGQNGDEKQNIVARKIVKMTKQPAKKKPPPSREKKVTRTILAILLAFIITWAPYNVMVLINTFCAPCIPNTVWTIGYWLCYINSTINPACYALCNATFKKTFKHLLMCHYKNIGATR", "protocol": "as §1"}, "Melanocortin MC4": {"target": "T6, Melanocortin MC4 (Homo sapiens, UniProt P32245)", "T6 construct": "Eurofins Discovery (contract panel) Item PP223", "protocol": "as §1"}, "[1]": {"target": "T7, Serotonin (5-Hydroxytryptamine) 5-HT2C (Homo sapiens, UniProt P28335)", "T7 construct": "Eurofins Discovery (contract panel) PP223", "T7 sequence (P28335 33-458)": "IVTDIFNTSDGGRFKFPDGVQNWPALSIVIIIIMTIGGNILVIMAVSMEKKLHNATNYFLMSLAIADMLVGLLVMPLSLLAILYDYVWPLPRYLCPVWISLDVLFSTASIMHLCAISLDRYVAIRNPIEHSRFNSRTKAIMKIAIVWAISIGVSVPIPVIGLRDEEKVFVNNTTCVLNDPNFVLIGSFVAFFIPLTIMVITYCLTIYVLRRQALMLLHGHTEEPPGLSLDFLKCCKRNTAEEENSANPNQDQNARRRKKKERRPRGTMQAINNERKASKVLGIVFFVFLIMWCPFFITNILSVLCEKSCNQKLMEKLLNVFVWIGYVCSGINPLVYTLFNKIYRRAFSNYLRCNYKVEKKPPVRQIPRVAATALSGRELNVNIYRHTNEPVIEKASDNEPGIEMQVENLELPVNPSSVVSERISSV", "protocol": "as §1"}, "[2]": {"target": "T8, Transporter, Norepinephrine (NET) (Homo sapiens, UniProt P23975)", "T8 construct": "Eurofins Discovery (contract panel) PP223", "protocol": "as §1"}, "Estrogen ERα": {"target": "T9, Estrogen ERα (Homo sapiens, UniProt P03372)", "T9 construct": "Eurofins Discovery (contract panel) Item PP223", "protocol": "as §1"}, "Chemokine CCR1": {"target": "T10, Chemokine CCR1 (Homo sapiens, UniProt P32246)", "T10 construct": "Eurofins Discovery (contract panel) PP223", "protocol": "as §1"}, "[3]": {"target": "T11, Platelet Activating Factor (PAF) (Homo sapiens, UniProt P25105)", "T11 construct": "Eurofins Discovery (outsourced panel) PP223", "protocol": "as §1"}, "[4]": {"target": "T12, Cholecystokinin CCK2 (CCKB) (Homo sapiens, UniProt P32239)", "T12 construct": "Eurofins Discovery (contract panel) PP223", "protocol": "as §1"}, "Progesterone PR-B": {"target": "T13, Progesterone PR-B (Homo sapiens, UniProt P06401)", "T13 construct": "Eurofins Discovery (outsourced panel) PP223", "protocol": "as §1"}, "Dopamine D2S": {"target": "T14, Dopamine D2S (Homo sapiens, UniProt P14416)", "T14 construct": "Eurofins Discovery (contract panel) Item PP223", "protocol": "as §1"}, "Angiotensin AT1": {"target": "T15, Angiotensin AT1 (Homo sapiens, UniProt P30556)", "T15 construct": "Eurofins Discovery (contract panel) PP223", "T15 sequence (P30556 whole entry)": "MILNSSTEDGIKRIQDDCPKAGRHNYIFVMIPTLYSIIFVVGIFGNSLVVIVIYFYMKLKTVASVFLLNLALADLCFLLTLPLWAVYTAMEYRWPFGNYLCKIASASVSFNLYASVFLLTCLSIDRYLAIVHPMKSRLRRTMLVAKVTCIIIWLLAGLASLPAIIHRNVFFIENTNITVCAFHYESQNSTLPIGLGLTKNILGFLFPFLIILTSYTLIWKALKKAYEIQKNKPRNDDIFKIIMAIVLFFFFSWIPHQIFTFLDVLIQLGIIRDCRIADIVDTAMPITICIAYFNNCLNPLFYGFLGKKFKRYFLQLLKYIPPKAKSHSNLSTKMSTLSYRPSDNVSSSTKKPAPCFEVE", "protocol": "as §1"}, "Vasopressin V1A": {"target": "T16, Vasopressin V1A (Homo sapiens, UniProt P37288)", "T16 construct": "Eurofins Discovery (contract panel) PP223", "protocol": "as §1"}, "Muscarinic M4": {"target": "T17, Muscarinic M4 (Homo sapiens, UniProt P08173)", "T17 construct": "Eurofins Discovery (outsourced panel) PP223", "protocol": "as §1"}, "Tachykinin NK1": {"target": "T18, Tachykinin NK1 (Homo sapiens, UniProt P25103)", "T18 construct": "Eurofins Discovery (contract panel) PP223", "protocol": "as §1"}, "Cannabinoid CB1": {"target": "T19, Cannabinoid CB1 (Homo sapiens, UniProt P21554)", "T19 construct": "Eurofins Discovery (contract panel) PP223", "protocol": "as §1"}, "[5]": {"target": "T20, Serotonin (5-Hydroxytryptamine) 5-HT1B (Homo sapiens, UniProt P28222)", "T20 construct": "Eurofins Discovery (outsourced panel) PP223", "protocol": "as §1"}, "Endothelin ETA": {"target": "T21, Endothelin ETA (Homo sapiens, UniProt P25101)", "T21 construct": "Eurofins Discovery (contract panel) Item PP223", "T21 sequence (P25101 21-427)": "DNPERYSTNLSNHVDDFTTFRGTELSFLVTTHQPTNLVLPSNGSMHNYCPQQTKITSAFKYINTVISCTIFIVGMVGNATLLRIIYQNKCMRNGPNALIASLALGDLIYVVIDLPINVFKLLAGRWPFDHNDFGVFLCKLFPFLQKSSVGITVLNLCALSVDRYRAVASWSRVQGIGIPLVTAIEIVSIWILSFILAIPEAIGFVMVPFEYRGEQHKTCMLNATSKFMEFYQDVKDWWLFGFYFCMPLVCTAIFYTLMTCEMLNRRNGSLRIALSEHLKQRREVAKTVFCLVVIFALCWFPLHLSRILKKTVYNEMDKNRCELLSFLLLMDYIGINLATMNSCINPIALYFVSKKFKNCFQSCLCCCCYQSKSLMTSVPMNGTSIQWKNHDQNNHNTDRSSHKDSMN", "protocol": "as §1"}, "Calcium Channel N-Type": {"target": "T22, Calcium Channel N-Type (Rattus norvegicus, UniProt Q02294)", "T22 construct": "Eurofins Discovery (contract panel) PP223", "protocol": "as §1"}, "Adrenergic α1A": {"target": "T23, Adrenergic α1A (Rattus norvegicus, UniProt P43140)", "T23 construct": "Eurofins Discovery (contract panel) PP223", "protocol": "as §1"}, "Adrenergic α2B": {"target": "T24, Adrenergic α2B (Homo sapiens, UniProt P18089)", "T24 construct": "Eurofins Discovery (contract panel) PP223", "T24 sequence (P18089 whole entry)": "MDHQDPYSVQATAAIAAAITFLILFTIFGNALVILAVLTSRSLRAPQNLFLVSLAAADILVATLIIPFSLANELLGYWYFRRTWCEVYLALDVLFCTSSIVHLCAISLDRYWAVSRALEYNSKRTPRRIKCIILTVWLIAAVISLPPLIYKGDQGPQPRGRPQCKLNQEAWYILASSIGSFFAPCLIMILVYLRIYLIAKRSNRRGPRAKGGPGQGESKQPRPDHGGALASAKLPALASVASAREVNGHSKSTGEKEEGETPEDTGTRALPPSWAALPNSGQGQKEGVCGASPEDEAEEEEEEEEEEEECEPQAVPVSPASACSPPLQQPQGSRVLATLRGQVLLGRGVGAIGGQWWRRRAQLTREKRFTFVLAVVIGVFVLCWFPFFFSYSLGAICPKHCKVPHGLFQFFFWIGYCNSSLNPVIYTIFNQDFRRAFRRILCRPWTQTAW", "protocol": "as §1"}, "Dopamine D2L": {"target": "T25, Dopamine D2L (Homo sapiens, UniProt P14416)", "T25 construct": "Eurofins Discovery (contract panel) Item PP223", "protocol": "as §1"}, "GABAB1A": {"target": "T26, GABAB1A (Homo sapiens, UniProt Q9UBS5)", "T26 construct": "Eurofins Discovery (contract panel) Item PP223", "protocol": "as §1"}, "Histamine H1": {"target": "T27, Histamine H1 (Homo sapiens, UniProt P35367)", "T27 construct": "Eurofins Discovery (contract panel) Item PP223", "protocol": "as §1"}, "Muscarinic M3": {"target": "T28, Muscarinic M3 (Homo sapiens, UniProt P20309)", "T28 construct": "Eurofins Discovery (outsourced panel) PP223", "protocol": "as §1"}, "Adrenergic β2": {"target": "T29, Adrenergic β2 (Homo sapiens, UniProt P07550)", "T29 construct": "Eurofins Discovery (contract panel) PP223", "T29 sequence (P07550 whole entry)": "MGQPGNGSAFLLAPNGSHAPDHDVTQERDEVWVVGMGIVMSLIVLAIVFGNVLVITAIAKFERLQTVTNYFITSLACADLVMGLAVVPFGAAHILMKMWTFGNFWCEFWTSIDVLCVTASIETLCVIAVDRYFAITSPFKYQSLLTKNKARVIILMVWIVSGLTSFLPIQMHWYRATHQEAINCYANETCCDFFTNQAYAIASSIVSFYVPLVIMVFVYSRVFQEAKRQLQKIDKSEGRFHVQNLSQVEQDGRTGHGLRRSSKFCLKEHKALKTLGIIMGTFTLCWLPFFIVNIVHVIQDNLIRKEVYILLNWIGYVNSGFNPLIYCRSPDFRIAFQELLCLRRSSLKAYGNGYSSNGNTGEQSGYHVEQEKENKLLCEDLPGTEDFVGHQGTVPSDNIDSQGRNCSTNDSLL", "protocol": "as §1"}, "Potassium Channel hERG": {"target": "T30, Potassium Channel hERG (Homo sapiens, UniProt Q12809)", "T30 construct": "Eurofins Discovery (outsourced panel) PP223", "protocol": "as §1"}, "[6]": {"target": "T31, Transporter, Dopamine (DAT) (Homo sapiens, UniProt Q01959)", "T31 construct": "Eurofins Discovery (contract panel) PP223", "T31 sequence (Q01959 whole entry)": "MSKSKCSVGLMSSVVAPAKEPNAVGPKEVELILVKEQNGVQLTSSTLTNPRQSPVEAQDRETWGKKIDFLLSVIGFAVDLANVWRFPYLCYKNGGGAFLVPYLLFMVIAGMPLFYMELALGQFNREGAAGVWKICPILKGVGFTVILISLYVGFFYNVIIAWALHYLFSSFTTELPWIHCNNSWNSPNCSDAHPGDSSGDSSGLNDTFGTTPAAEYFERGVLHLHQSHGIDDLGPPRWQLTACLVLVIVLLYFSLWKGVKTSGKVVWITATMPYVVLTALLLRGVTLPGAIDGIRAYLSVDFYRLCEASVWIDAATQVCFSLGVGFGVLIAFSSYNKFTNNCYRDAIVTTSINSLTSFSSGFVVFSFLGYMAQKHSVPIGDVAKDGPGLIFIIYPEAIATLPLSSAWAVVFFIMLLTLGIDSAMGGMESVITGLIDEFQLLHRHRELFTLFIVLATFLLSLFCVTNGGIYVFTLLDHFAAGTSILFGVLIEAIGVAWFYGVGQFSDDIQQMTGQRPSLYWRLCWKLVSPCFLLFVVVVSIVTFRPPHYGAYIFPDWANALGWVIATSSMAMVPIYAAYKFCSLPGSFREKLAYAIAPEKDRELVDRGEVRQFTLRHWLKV", "protocol": "as §1"}, "Adenosine A2A": {"target": "T32, Adenosine A2A (Homo sapiens, UniProt P29274)", "T32 construct": "Eurofins Discovery (contract panel) PP223", "T32 sequence (P29274 whole entry)": "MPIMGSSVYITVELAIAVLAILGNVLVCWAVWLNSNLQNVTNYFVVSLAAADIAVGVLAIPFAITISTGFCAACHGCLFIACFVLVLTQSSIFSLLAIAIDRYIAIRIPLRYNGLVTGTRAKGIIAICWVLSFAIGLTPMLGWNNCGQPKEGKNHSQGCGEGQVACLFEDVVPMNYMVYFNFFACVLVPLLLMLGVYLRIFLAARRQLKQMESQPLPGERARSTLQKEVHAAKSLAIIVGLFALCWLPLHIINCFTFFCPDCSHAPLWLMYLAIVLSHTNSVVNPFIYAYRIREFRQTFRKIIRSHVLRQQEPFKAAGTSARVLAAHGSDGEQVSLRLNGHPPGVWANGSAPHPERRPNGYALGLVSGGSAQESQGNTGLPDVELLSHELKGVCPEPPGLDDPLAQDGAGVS", "protocol": "as §1"}, "Melanocortin MC1": {"target": "T33, Melanocortin MC1 (Homo sapiens, UniProt Q01726)", "T33 construct": "Eurofins Discovery (contract panel) Item PP223", "protocol": "as §1"}, "Bradykinin B2": {"target": "T34, Bradykinin B2 (Homo sapiens, UniProt P30411)", "T34 construct": "Eurofins Discovery (contract panel) PP223", "protocol": "as §1"}, "Adrenergic α1B": {"target": "T35, Adrenergic α1B (Rattus norvegicus, UniProt P15823)", "T35 construct": "Eurofins Discovery (contract panel) PP223", "T35 sequence (P15823 whole entry)": "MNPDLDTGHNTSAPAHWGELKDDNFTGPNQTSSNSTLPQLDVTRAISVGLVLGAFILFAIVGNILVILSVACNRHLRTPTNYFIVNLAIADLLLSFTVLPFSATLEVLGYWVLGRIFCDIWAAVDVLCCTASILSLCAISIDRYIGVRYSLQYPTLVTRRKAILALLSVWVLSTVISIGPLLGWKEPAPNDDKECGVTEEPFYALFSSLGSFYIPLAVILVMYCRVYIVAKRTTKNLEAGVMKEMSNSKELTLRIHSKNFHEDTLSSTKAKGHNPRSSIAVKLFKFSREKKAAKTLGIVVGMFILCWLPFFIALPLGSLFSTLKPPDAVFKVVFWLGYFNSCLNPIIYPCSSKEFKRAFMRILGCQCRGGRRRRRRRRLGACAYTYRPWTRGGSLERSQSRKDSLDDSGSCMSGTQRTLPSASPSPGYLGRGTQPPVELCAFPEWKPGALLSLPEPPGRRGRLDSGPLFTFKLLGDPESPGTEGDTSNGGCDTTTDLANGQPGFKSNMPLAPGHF", "protocol": "as §1"}, "[7]": {"target": "T36, Serotonin (5-Hydroxytryptamine) 5-HT2B (Homo sapiens, UniProt P41595)", "T36 construct": "Eurofins Discovery (contract panel) PP223", "protocol": "as §1"}, "Cannabinoid CB2": {"target": "T37, Cannabinoid CB2 (Homo sapiens, UniProt P34972)", "T37 construct": "Eurofins Discovery (contract panel) PP223", "protocol": "as §1"}, "Adenosine A1": {"target": "T38, Adenosine A1 (Homo sapiens, UniProt P30542)", "T38 construct": "Eurofins Discovery (contract panel) PP223", "protocol": "as §1"}, "[8]": {"target": "T39, Serotonin (5-Hydroxytryptamine) 5-HT2A (Homo sapiens, UniProt P28223)", "T39 construct": "Eurofins Discovery (outsourced panel) PP223", "protocol": "as §1"}, "PPARγ": {"target": "T40, PPARγ (Homo sapiens, UniProt P37231)", "T40 construct": "Eurofins Discovery (outsourced panel) PP223", "protocol": "as §1"}, "Adrenergic α2A": {"target": "T41, Adrenergic α2A (Homo sapiens, UniProt P08913)", "T41 construct": "Eurofins Discovery (contract panel) PP223", "protocol": "as §1"}, "Dopamine D1": {"target": "T42, Dopamine D1 (Homo sapiens, UniProt P21728)", "T42 construct": "Eurofins Discovery (contract panel) Item PP223", "protocol": "as §1"}}}
{"smiles": "CC(=O)N1CC2(CCN(C(=O)[C@@H](CCCCN)NC(=O)[C@@H](CC(C)C)NC(=O)[C@@H](Cc3ccccc3)NC(=O)[C@H](N)Cc3ccccc3)CC2)C1", "note": "[HSK21542, 7-(D-phenylalanyl-D-phenylalanyl-D-leucyl-D-lysyl)-2-acetyl-2,7-diazaspiro (3.5)nonane]", "values": [{"measurement": "inhibition at 10 µM", "setting": "Muscarinic M1", "result": 9, "unit": "%"}, {"measurement": "inhibition at 10 µM", "setting": "Neuropeptide YY1", "result": -8, "unit": "%"}, {"measurement": "inhibition at 10 µM", "setting": "Opiate μ (OP3, MOP)", "result": 0, "unit": "%"}, {"measurement": "inhibition at 10 µM", "setting": "Glucocorticoid", "result": 8, "unit": "%"}, {"measurement": "inhibition at 10 µM", "setting": "Muscarinic M2", "result": 1, "unit": "%"}, {"measurement": "inhibition at 10 µM", "setting": "Melanocortin MC4", "result": 27, "unit": "%"}, {"measurement": "inhibition at 10 µM", "setting": "[1]", "result": 0, "unit": "%"}, {"measurement": "inhibition at 10 µM", "setting": "[2]", "result": 19, "unit": "%"}, {"measurement": "inhibition at 10 µM", "setting": "Estrogen ERα", "result": 0, "unit": "%"}, {"measurement": "inhibition at 10 µM", "setting": "Chemokine CCR1", "result": -4, "unit": "%"}, {"measurement": "inhibition at 10 µM", "setting": "[3]", "result": 10, "unit": "%"}, {"measurement": "inhibition at 10 µM", "setting": "[4]", "result": -12, "unit": "%"}, {"measurement": "inhibition at 10 µM", "setting": "Progesterone PR-B", "result": -1, "unit": "%"}, {"measurement": "inhibition at 10 µM", "setting": "Dopamine D2S", "result": -15, "unit": "%"}, {"measurement": "inhibition at 10 µM", "setting": "Angiotensin AT1", "result": -7, "unit": "%"}, {"measurement": "inhibition at 10 µM", "setting": "Vasopressin V1A", "result": -24, "unit": "%"}, {"measurement": "inhibition at 10 µM", "setting": "Muscarinic M4", "result": 3, "unit": "%"}, {"measurement": "inhibition at 10 µM", "setting": "Tachykinin NK1", "result": 21, "unit": "%"}, {"measurement": "inhibition at 10 µM", "setting": "Cannabinoid CB1", "result": 47, "unit": "%"}, {"measurement": "inhibition at 10 µM", "setting": "[5]", "result": 1, "unit": "%"}, {"measurement": "inhibition at 10 µM", "setting": "Endothelin ETA", "result": 4, "unit": "%"}, {"measurement": "inhibition at 10 µM", "setting": "Calcium Channel N-Type", "result": -3, "unit": "%"}, {"measurement": "inhibition at 10 µM", "setting": "Adrenergic α1A", "result": 12, "unit": "%"}, {"measurement": "inhibition at 10 µM", "setting": "Adrenergic α2B", "result": -6, "unit": "%"}, {"measurement": "inhibition at 10 µM", "setting": "Dopamine D2L", "result": -6, "unit": "%"}, {"measurement": "inhibition at 10 µM", "setting": "GABAB1A", "result": -8, "unit": "%"}, {"measurement": "inhibition at 10 µM", "setting": "Histamine H1", "result": 4, "unit": "%"}, {"measurement": "inhibition at 10 µM", "setting": "Muscarinic M3", "result": -3, "unit": "%"}, {"measurement": "inhibition at 10 µM", "setting": "Adrenergic β2", "result": 3, "unit": "%"}, {"measurement": "inhibition at 10 µM", "setting": "Potassium Channel hERG", "result": 1, "unit": "%"}, {"measurement": "inhibition at 10 µM", "setting": "[6]", "result": 2, "unit": "%"}, {"measurement": "inhibition at 10 µM", "setting": "Adenosine A2A", "result": 3, "unit": "%"}, {"measurement": "inhibition at 10 µM", "setting": "Melanocortin MC1", "result": -3, "unit": "%"}, {"measurement": "inhibition at 10 µM", "setting": "Bradykinin B2", "result": -3, "unit": "%"}, {"measurement": "inhibition at 10 µM", "setting": "Adrenergic α1B", "result": 3, "unit": "%"}, {"measurement": "inhibition at 10 µM", "setting": "[7]", "result": 0, "unit": "%"}, {"measurement": "inhibition at 10 µM", "setting": "Cannabinoid CB2", "result": -30, "unit": "%"}, {"measurement": "inhibition at 10 µM", "setting": "Adenosine A1", "result": 0, "unit": "%"}, {"measurement": "inhibition at 10 µM", "setting": "[8]", "result": 0, "unit": "%"}, {"measurement": "inhibition at 10 µM", "setting": "PPARγ", "result": 3, "unit": "%"}, {"measurement": "inhibition at 10 µM", "setting": "Adrenergic α2A", "result": 7, "unit": "%"}, {"measurement": "inhibition at 10 µM", "setting": "Dopamine D1", "result": 3, "unit": "%"}]}
